# Test results reported in PMC11368737, “Effects of three flavonoids on the metabolism of lenvatinib” (Frontiers in Pharmacology, 2024).
# Where two headings read alike, the source gives them in different places.
# B1: CYP1A2 (Rattus norvegicus) (protein)
# chain: MAFSQYISLAPELLLATAIFCLVFWVLRGTRTQVPKGLKSPPGPWGLPFIGHMLTLGKNPHLSLTKLSQQYGDVLQIRIGSTPVVVLSGLNTIKQALVKQGDDFKGRPDLYSFTLITNGKSMTFNPDSGPVWAARRRLAQDALKSFSIASDPTSVSSCYLEEHVSKEANHLISKFQKLMAEVGHFEPVNQVVESVANVIGAMCFGKNFPRKSEEMLNLVKSSKDFVENVTSGNAVDFFPVLRYLPNPALKRFKNFNDNFVLFLQKTVQEHYQDFNKNSIQDITGALFKHSENYKDNGGLIPQEKIVNIVNDIFGAGFETVTTAIFWSILLLVTEPKVQRKIHEELDTVIGRDRQPRLSDRPQLPYLEAFILEIYRYTSFVPFTIPHSTTRDTSLNGFHIPKECCIFINQWQVNHDEKQWKDPFVFRPERFLTNDNTAIDKTLSEKVMLFGLGKRRCIGEIPAKWEVFLFLAILLHQLEFTVPPGVKVDLTPSYGLTMKPRTCEHVQAWPRFSK
# Legend:
# [1] = Metabolic stability of lenvatinib in RLM with or without flavonoids; assay type: in vitro ADME; conditions: rat, rat liver microsomes, 1.0 μM lenvatinib, 0.3 mg/mL RLM, with or without flavonoid, n = 3
# Method: Using the UPLC-MS/MS technique, metabolic stability tests were carried out to monitor any discernible drop in lenvatinib concentration in the RLM matrix ([Shang et al., 2021]). 1.0 μM lenvatinib was incubated with 0.3 mg/mL RLM and 1 mM NADPH in 0.1 M Tris-HCl buffer until a final volume of 0.2 mL was reached. NADPH was introduced following a 5 min pre-incubation period, and the reaction was stopped at various intervals of 0, 5, 10, 45, 60, and 90 min. Similarly, three flavonoids were added to the above incubation system to study the effects of the three flavonoids on the metabolic stability of lenvatinib. The post-treatment method was same as the above enzyme reaction. The metabolic stability curve for lenvatinib was constructed from the obtained data.
# The relative content of lenvatinib in the RLM matrix was calculated after stopping the metabolic reaction at different time periods. The relative content was equal to the percentage of the remaining lenvatinib relative to zero time (representing 100%). […] The in vitro half-life (t1/2) was obtained using the equation: t1/2 = 0.693/k; V (mL/mg) = volume of incubation ([Kaci et al., 2023])/protein in the incubation ([Rumgay et al., 2022]); intrinsic clearance (CLint) (mL/min/mg protein) = V × 0.693/t1/2. […] The metabolic stability results of three flavonoids co-incubated with lenvatinib, including t1/2 and clearance were shown in Table 3.
# [2] = Michaelis-Menten kinetics of lenvatinib in HLM; assay type: in vitro ADME, human; conditions: human, human liver microsomes; 2–100 μM lenvatinib, 0.3 mg/mL HLM
# Method: (§2) To determine the enzymatic kinetic parameter (the Michaelis constant, Km) of lenvatinib in RLM and HLM, we established a 200 μL enzyme reaction system, which included 2–100 μM lenvatinib, 0.3 mg/mL RLM or HLM, 0.1 M Tris-HCl, and 1 mM NADPH. […] First, the mixture without NADPH was pre-incubated at 37°C for 5 min, and then 10 μL NADPH was added to start the reaction. After incubation for 30 min, the samples were immediately freezed to −80°C to terminate the reaction. About 20 min later, 300 μL acetonitrile and 10 μL regorafenib (200 ng/mL) as IS were added to precipitate the protein. When the samples were fully vortexed for 2 min and completely mixed, the mixture was centrifuged for 10 min at 13,000 rpm. In the end, each supernatant was detected and analyzed by UPLC-MS/MS.
# (§3) The experimental data were expressed as mean ± standard deviation (mean ± S.D.). Through GraphPad Prism 9.5 software, the Michaelis-Menten curves of lenvatinb in RLM and HLM were drawn based on the Michaelis-Menten analysis curve fitting program in nonlinear regression analysis, and the log(inhibitor) vs normalized response mode was applied to acquire the corresponding IC50 curve diagram. […]
# HLM = test: Michaelis-Menten kinetics of lenvatinib in HLM; assay type: in vitro ADME, human; conditions: HLM vs RLM
# Method: as §2, §3
# [3] = Pharmacokinetics of lenvatinib in SD rats with or without luteolin or myricetin; conditions: Sprague-Dawley, rat, in vivo, po, 1.2 mg/kg
# Method: Fifteen SD rats were randomly divided into three groups (n = 5): Group A, lenvatinib (1.2 mg/kg, p. o.) ([Cui et al., 2021]); Group B, lenvatinib (1.2 mg/kg, p. o.) + luteolin (30 mg/kg, p. o.) ([Chen et al., 2010]); Group C, lenvatinib (1.2 mg/kg, p. o.) + myricetin (50 mg/kg, p. o.) ([Lan et al., 2017]). Three drugs were suspended in 0.5% carboxymethylcellulose sodium salt (CMC-Na) solution, respectively, prepared when used. Before the formal experiment, SD rats fasted for 12 h to avoid the effect of food intake on drug absorption, but were free to drink water. At the beginning of the experiment, group A was given equal volumes of 0.5% CMC-Na solution, while group B and C were received luteolin and myricetin, respectively. After 30 min, all three groups were gavaged with a single dose of 1.2 mg/kg lenvatinib. At 1, 1.5, 2, 3, 4, 6, 8, 12, and 24 h after lenvatinib administration, blood samples were collected from the tail vein into a 1.5 mL EP tube treated with heparin, respectively. The 50 μL plasma supernatant was precisely extracted and put into a new 1.5 mL EP tube after centrifugation at 8,000 rpm for 10 min. […] Finally, the liquid supernatant was taken to UPLC-MS/MS to detect the concentration of the analytes.
# CYP1A2 [4] = target: T1, CYP1A2 (Rattus norvegicus, UniProt P04799); test: CYP1A2 activity in RLM, mixed probe method (melatonin); conditions: for inhibition at 30 min, 100 µM: rat
# T1 sequence (P04799 1-513): B1 chain
# Method: (§4) To determine the enzymatic kinetic parameter (the Michaelis constant, Km) of lenvatinib in RLM and HLM, we established a 200 μL enzyme reaction system, which included 2–100 μM lenvatinib, 0.3 mg/mL RLM or HLM, 0.1 M Tris-HCl, and 1 mM NADPH. […] The mixed probe substrates were added to an incubation mixture containing 0.3 mg/mL RLM, 0.1 M PBS, and 1 mM NADPH. First, the mixture without NADPH was pre-incubated at 37°C for 5 min, and then 10 μL NADPH was added to start the reaction. After incubation for 30 min, the samples were immediately freezed to −80°C to terminate the reaction. About 20 min later, 300 μL acetonitrile and 10 μL regorafenib (200 ng/mL) as IS were added to precipitate the protein. When the samples were fully vortexed for 2 min and completely mixed, the mixture was centrifuged for 10 min at 13,000 rpm. In the end, each supernatant was detected and analyzed by UPLC-MS/MS.
# (§5) To explore the ability of three flavonoids to inhibit lenvatinib metabolism in vitro, we measured the half-maximal inhibitory concentration (IC50) of luteolin, myricetin, and fisetin, respectively. The 200 μL incubation system consisted of Tris-HCl (0.1 M), RLM or HLM (0.3 mg/mL), NADPH (1 mM), lenvatinib (23.5 μM in RLM or 16.9 μM in HLM) and three flavonoids (0, 0.01, 0.1, 1, 10, 25, 50 and 100 μM). To evaluate the effects of three flavonoids on CYP1A2, CYP2B6 and CYP3A4 activity in RLM, the specific CYP isoform probe mixture was incubated with a single inhibitor and the specific CYP isoform probe was used at a concentration equal to or slightly below its corresponding Km value ([Dinger et al., 2014]). […] Finally, the samples were processed as mentioned above.
# CYP3A4 [5] = tested on: CYP3A4
# Method: as §4, §5
# [6] = tested on: lenvatinib metabolism in rat liver microsomes (RLM); test: Inhibition of lenvatinib metabolism (M1 formation) by flavonoids in rat liver microsomes; conditions: Lineweaver-Burk plot
# Source text: (§1) The experimental data were expressed as mean ± standard deviation (mean ± S.D.). Through GraphPad Prism 9.5 software, the Michaelis-Menten curves of lenvatinb in RLM and HLM were drawn based on the Michaelis-Menten analysis curve fitting program in nonlinear regression analysis, and the log(inhibitor) vs normalized response mode was applied to acquire the corresponding IC50 curve diagram. The Lineweaver-Burk plot was got by the Lineweaver-Burk double reciprocal mode, and its subsidiary plot was drawn on the slope (Km/Vmax vs. inhibitor concentration) and y-intercept (1/Vmax vs. inhibitor concentration) of the drawn line. Besides, the mean plasma concentration-time curve of lenvatinib was plotted based on the pharmacokinetic data. Drug and Statistics (DAS) software (version 3.0 software, Mathematical Pharmacology Professional Committee of China, Shanghai, China) with non-compartment model analyzes was used to obtain the corresponding pharmacokinetic parameters. SPSS (version 24.0; SPSS Inc., Chicago, IL, United States of America) with one-way ANOVA was used to compare the difference between the combination and the single group, respectively. p < 0.05, it was considered statistically significant.
# [7] = tested on: lenvatinib metabolism (M1 formation) in HLM; test: Inhibition of lenvatinib metabolism (M1 formation) by flavonoids in human liver microsomes; assay type: in vitro ADME; conditions: human; for IC50 at 30 min: 0.3 mg/mL HLM, lenvatinib 16.9 μM, mean ± S.D., read-out: IC50 to inhibit the metabolism of lenvatinib in HLM
# [8] = tested on: lenvatinib metabolism in human liver microsomes (HLM); test: as above; assay type: in vitro ADME; conditions: for Inhibitory type on lenvatinib metabolism in HLM: Lineweaver-Burk plot
# CYP3A4 [9] = test: in vitro; conditions: rat; for IC50 at 30 min: microsomes
# Method: as §4, §5
# CYP2B6 = CYP2B6 activity in RLM, mixed probe method (bupropion); conditions: for IC50 at 30 min: rat
# CYP1A2 [10] = tested on: CYP1A2; set-up: method as in Cao et al., 2017; Shi et al., 2024; conditions: ref Cao et al., 2017; Shi et al., 2024; read-out: IC50 on CYP1A2 in vitro; cited from earlier work
# [11] = set-up: method as in Xia et al., 2023; conditions: co-administered azole; ref Xia et al., 2023; cited from earlier work
# [12] = tested on: tofacitinib metabolism in HLM; set-up: method as in Ye et al., 2024; conditions: ref Ye et al., 2024, cited from earlier work
# [13] = set-up: method as in Hong et al., 2014; conditions: rats; ref Hong et al., 2014; cited from earlier work
# [14] = tested on: lenvatinib metabolism (M1 formation) in RLM; test: Inhibition of lenvatinib metabolism (M1 formation) by flavonoids in rat liver microsomes; conditions: rat
# Source text: as §1
# [15] = tested on: tofacitinib metabolism in RLM; set-up: method as in Ye et al., 2024; conditions: ref Ye et al., 2024, cited from earlier work
# CYP1A2 [16] = tested on: CYP1A2; set-up: method as in Vavrová et al., 2022; Liu et al., 2023; conditions: CYP1A2 selective inhibitor; ref Vavrová et al., 2022; Liu et al., 2023; cited from earlier work
# not read = substrate: COc1ccc2[nH]cc(CCNC(C)=O)c2c1; test: not read; conditions: other: melatonin, mixed method, RLM; 37.0 °C
# Method: as §4, §5
# [17] = human liver microsomes, probe lenvatinib 16.9 μM
# [18] = rat liver microsomes, probe bupropion (8.0 μM)
molecule,measurement,setting,value
"COc1cc2nccc(Oc3ccc(NC(=O)NC4CC4)c(Cl)c3)c2cc1C(N)=O [lenvatinib, Lenvatinib]",microsomal CLint at 1 μM,[1],2.3 ± 0.2 µL/min/mg
same,half-life at 1 μM,[1]; read-out: in vitro t1/2 of lenvatinib,17 ± 1.55 h
same,Km at 30 min,[2],16.9 ± 2.42 µM
same,Km in HLM lower than in RLM,HLM,28.1%
same,AUC(0-inf),[3],1410 ng·h/mL
same,AUC(0-t),[3],1260 ng·h/mL
same,CL/F,[3],14.3 mL/min/kg
same,Cmax,[3],147 ± 20.4 ng/mL
same,Tmax,[3],5.6 ± 0.89 h
same,t1/2z of lenvatinib,[3],4.14 ± 1.57 h
O=c1cc(-c2ccc(O)c(O)c2)oc2cc(O)cc(O)c12 [luteolin],IC50,CYP1A2 [4],0.81 ± 0.07 µM
same,Degree of inhibition on CYP1A2,"CYP1A2 [4]; RLM, 100 μM",strong inhibition
same,"inhibition at 30 min, 100 µM","CYP1A2 [4]; rat liver microsomes, probe melatonin (30.0 μM)",96.9%
same,Degree of inhibition on CYP3A4,CYP3A4 [5]; microsomes,weak inhibition
same,Inhibitory type on lenvatinib metabolism in RLM,[6],un-competitive
same,Inhibitory type on lenvatinib metabolism in RLM,[6]; listed as Luteolin,un-competitive inhibition
same,IC50 at 30 min,[7]; [17],6.89 ± 0.43 µM
same,Ki at 30 min,"[7]; human liver microsomes, probe lenvatinib 4.23, 8.45, 16.90, 33.80 μM, Lineweaver-Burk secondary plot, n = 3",14.3 ± 4.85 µM
same,Inhibitory type on lenvatinib metabolism in HLM,[8],mixed
same,Inhibitory type on lenvatinib metabolism in HLM,[8]; listed as Luteolin,mixed type of non-competitive and competitive inhibition
same,α for inhibition of lenvatinib metabolism in HLM,[8]; αKi/Ki,1.34
same,IC50 at 30 min,CYP3A4 [9],49.4 ± 2.45 µM
same,Degree of inhibition on CYP2B6,CYP2B6; RLM,moderate inhibition
same,IC50 at 30 min,CYP2B6; [18],18.9 ± 1.33 µM
same,IC50,CYP1A2 [10],< 10 µM
O=c1c(O)c(-c2ccc(O)c(O)c2)oc2cc(O)ccc12 [fisetin],IC50,CYP1A2 [4],5.89 ± 0.13 µM
same,"inhibition at 30 min, 100 µM",CYP1A2 [4]; microsomes,93.6%
same,Degree of inhibition on CYP3A4,CYP3A4 [5]; RLM,weak inhibition
same,IC50 at 30 min,[7]; [17],21.2 ± 0.93 µM
same,IC50 at 30 min,CYP3A4 [9],74.2 ± 2.16 µM
same,IC50 at 30 min,CYP2B6; [18],29.4 ± 1.36 µM
CC(=O)N1CCN(c2ccc(OCC3COC(Cn4ccnc4)(c4ccc(Cl)cc4Cl)O3)cc2)CC1 (stereo not drawn) [ketoconazole],Improvement of plasma exposure to lenvatinib,[11],3.01 times
O=c1c(O)c(-c2cc(O)c(O)c(O)c2)oc2cc(O)cc(O)c12 [myricetin],IC50,CYP1A2 [4],5.61 ± 0.25 µM
same,"inhibition at 30 min, 100 µM",CYP1A2 [4]; microsomes,98.1%
same,Inhibition type on tofacitinib in HLM,[12],non-competitively
same,IC50,[12]; read-out: IC50 for inhibition of tofacitinib in HLM,2.35 µM
same,Absolute bioavailability,[13],less than 10%
same,IC50 at 30 min,[14],11.2 ± 0.81 µM
same,IC50 at 30 min,[7],12.3 ± 1.21 µM
same,Inhibition type on tofacitinib in RLM,[15],non-competitively
same,IC50,[15]; read-out: IC50 for inhibition of tofacitinib in RLM,9.27 µM
same,IC50 at 30 min,CYP3A4 [9],5.11 ± 0.11 µM
same,IC50 at 30 min,"CYP2B6; microsomes, IC50 for CYP2B6 in RLM, probe 8.0 μM bupropion, mixed probes, 0.3 mg/mL RLM",> 20 µM
same,IC50,"CYP2B6; read-out: IC50 for CYP2B6 in RLM, probe 8.0 μM bupropion, mixed probes, 0.3 mg/mL RLM",25.6 ± 1.73 µM
"Cc1ncc2n1-c1ccc(Cl)cc1C(c1ccccc1F)=NC2 [midazolam, reference compound]",Km at 30 min,CYP3A4 [9],1.9 ± 0.13 µM
Cc1nc2c([nH]1)c(=O)n(C)c(=O)n2Cc1ccco1 [Furafylline],Inhibitory effect on the formation of O-desmethyl lenvatinib,CYP1A2 [16],37%
C[C@@H](c1nc(-c2ccc(C#N)cc2)cs1)[C@](O)(Cn1cncn1)c1cc(F)ccc1F [isavuconazole],Improvement of plasma exposure to lenvatinib,[11],50.20%
B1,Km,not read,32.39 ± 0.58 µM
